What all share (type): cell-based
Data set [1] concerns HCV genotype 1b replicon NS5A R30H. Kind of data set: Transient HCV 1b replicon, NS5A mutant R30H. The following applies: Hepatitis C virus, read-out: EC50 R30H. The source says: (§1) In a transient set-up, a Huh-7 lunet hepatoma cell line was transiently transfected with an autonomously replicating RNA encoding a bi-cistronic expression construct. This construct comprises a firefly luciferase reporter gene preceding the NS3-NS5B subgenomic region of HCV (genotype 1a H77 or 1b Con1). Translation of the HCV subgenomic region is mediated by an internal ribosome entry site of encephalomyocarditis virus. The construct is furthermore flanked by 5′ and 3′ untranslated regions of HCV (genotype 1a H77 or 1b Con 1, respectively), which allow for replication of the RNA.
(§2) In addition to the wild-type constructs, site-directed mutations were introduced into the transient HCV genotype 1b replicon in the gene encoding for the non-structural protein 5A (NS5A). More precisely, amino acid residues 28, 30, 31 and 93 in NS5A were independently altered.
(§3) Cells were plated in 384 well plates in the presence of test and control compounds, which were added in various concentrations. Following an incubation of two days, replication of the HCV subgenomic replicon RNA was measured by assaying luciferase activity (using standard luciferase assay substrates and reagents and a Perkin Elmer ViewLux™ ultraHTS microplate imager). HCV subgenomic replicon containing cells in the control cultures have high luciferase expression in the absence of any inhibitor. The inhibitory activity of the compound was monitored, enabling a dose-response curve for each test compound. EC50 values were then calculated, which represent the amount of compound required to decrease the level of detected luciferase activity by 50%, or more specifically, to reduce the ability of the genetically linked HCV subgenomic RNA to replicate.
(In general: In antiviral work, replicon cells carry a viral genome segment that copies itself.)

The nature of data set [2]: Counterscreen MT4-LTR-Luc. Conditions: human. The source says:
(§4) Counterscreen cell lines included a Huh-7 hepatoma cell line containing a human cytomegalovirus major immediate-early promoter-Luc construct (Huh7-CMV-Luc) and an MT4 T-cell line containing a long terminal repeat-Luc reporter (MT4-LTR-Luc).

Data set [3] deals with HCV type 1b replicon (Huh-7 luc/neo cells). Kind of data set: HCV replicon assay, stable transfection (Huh-Luc, luciferase). The following applies: Hepatitis C virus, Huh-7, 72 h, three days incubation, average of all tests. The source says: The compounds of formula (I) were examined for inhibitory activity in the HCV replicon. This cellular assay is based on a bicistronic expression construct, as described by Lohmann et al. (Science (1999) 285: 110-113; Journal of Virology (2003) 77: 3007-3019) with modifications described by Krieger et al. (Journal of Virology (2001) 75: 4614-4624), and Lohmann et al. (Journal of Virology (2003) 77: 3007-3019) for genotype 1b and by Yi et al. (Journal of Virology (2004) 78: 7904-7915) for genotype 1a, in a multi-target screening strategy.
The method was as follows. The assay utilized the stably transfected cell line Huh-7 luc/neo (hereafter referred to as Huh-Luc). This cell line harbors an RNA encoding a bicistronic expression construct comprising the wild type NS3-NS5B regions of HCV type 1b translated from an Internal Ribosome Entry Site (IRES) from encephalomyocarditis virus (EMCV), preceded by a reporter portion (FfL-luciferase), and a selectable marker portion (neoR, neomycine phosphotransferase). The construct is flanked by 5′ and 3′ NTRs (non-translated regions) from HCV type 1b. Continued culture of the replicon cells in the presence of G418 (neoR) is dependent on the replication of the HCV RNA. The stably transfected replicon cells that replicate HCV RNA autonomously and to high levels, encoding inter alia luciferase, were used for screening the antiviral compounds.
The replicon cells were plated in 384 well plates in the presence of the test and control compounds which were added in various concentrations. Following an incubation of three days, HCV replication was measured by assaying luciferase activity (using standard luciferase assay substrates and reagents and a Perkin Elmer ViewLux™ ultraHTS microplate imager). Replicon cells in the control cultures have high luciferase expression in the absence of any inhibitor. The inhibitory activity of the compound was monitored on the Huh-Luc cells, enabling a dose-response curve for each test compound. EC50 values were then calculated, which represent the amount of compound required to decrease the level of detected luciferase activity by 50%, or more specifically, to reduce the ability of the genetically linked HCV replicon RNA to replicate.
Where a compound of formula (I) was tested more than once in the replicon assay, the average of all test results is given in this Table 2.

The subject of data set [4] is HCV genotype 1b replicon NS5A Y93C. Kind of data set: Transient HCV 1b replicon, NS5A mutant Y93C. Conditions: Hepatitis C virus, read-out: EC50 Y93C.
Excerpt: as §1, §2, §3

Data set [5] has as its system HCV genotype 1b Con1 replicon (Huh-7 lunet cells). Kind of data set: HCV replicon assay, transient transfection, genotype 1b. Conditions: Hepatitis C virus, 48 h, genotype 1b Con1, two days incubation, luciferase.
Excerpt: as §1, §3
(§5) Where a compound of formula (I) was tested more than once in the transient replicon assay, the average of all test results is given in Table 3.

Data set [6] deals with HCV genotype 1b replicon NS5A Y93H. Put plainly: Transient HCV 1b replicon, NS5A mutant Y93H. The following applies: Hepatitis C virus, read-out: EC50 Y93H.
Excerpt: as §1, §2, §3

Data set [7] has as its system HCV genotype 1b replicon NS5A L28T. Put plainly: Transient HCV 1b replicon, NS5A mutant L28T. Conditions: Hepatitis C virus, read-out: EC50 L28T.
Excerpt: as §1, §2, §3

Data set [8] has as its system HCV genotype 1b replicon NS5A L31F. Put plainly: Transient HCV 1b replicon, NS5A mutant L31F. The following applies: Hepatitis C virus, read-out: EC50 L31F.
Excerpt: as §1, §2, §3

Data set [9] has as its system HCV genotype 1b replicon NS5A L31V. Put plainly: Transient HCV 1b replicon, NS5A mutant L31V. Conditions: Hepatitis C virus, read-out: EC50 L31V.
Excerpt: as §1, §2, §3

Data set [10] can be described thus: Counterscreen Huh7-CMV-Luc. The following applies: human.
Excerpt: as §4
(The purpose of a counterscreen is to sort out artefacts and off-target activity.)

Data set [11] relates to HCV genotype 1a H77 replicon (Huh-7 lunet cells). Put plainly: HCV replicon assay, transient transfection, genotype 1a. Conditions: Hepatitis C virus, 48 h, genotype 1a H77, two days incubation, luciferase.
Excerpt: as §1, §3, §5

One may read the EC50 as the concentration giving half of the maximal effect. One may read the CC50 as the concentration that lowers cell viability or growth by half. With `COC(=O)N[C@H](C(=O)N1CCC[C@H]1c1ncc(-c2ccc(-c3ccc4nc([C@@H]5CCCN5C(=O)[C@@H](NC(=O)OC)C(C)C)[nH]c4c3)cc2)[nH]1)C(C)C` [Compound 1], the concentration for a half-maximal effect (EC50) in data set [1] came out at 0.6 nM; in data set [3] it was 0.058 nM; in data set [4] it was 0.076 nM; in data set [5] it was 0.058 nM; in [6], 1.33 nM; in data set [7] it was 4.12 nM. For the same compound, the EC50 in data set [8] was determined as 0.775 nM; in data set [9], 1.06 nM. For the same compound, in data set [2], the CC50 was over 984 nM.

As to `COC(=O)N[C@H](C(=O)N1CCC[C@H]1c1ncc(-c2ccc3cc(-c4ccc5nc([C@@H]6CCCN6C(=O)[C@@H](NC(=O)OC)C6CCCC6)[nH]c5c4)ccc3c2)[nH]1)C1CCCC1` [Compound 15], the CC50 in data set [2] and in data set [10] was over 984 nM throughout. Further, the EC50 in [3] amounted to 0.003 nM; in [5] it was 0.003 nM; in data set [6], 1.19 nM; in data set [11], 0.277 nM.

As for `CC[C@@H](C)[C@H](NC(=O)OC)C(=O)N1CCC[C@H]1c1ncc(-c2ccc3cc(-c4ccc5nc([C@@H]6CCCN6C(=O)[C@@H](NC(=O)OC)[C@H](C)CC)[nH]c5c4)ccc3c2)[nH]1` [Compound 19], the CC50 in [2] and in data set [10] was over 984 nM each time. For the same compound, the EC50 is 0.003 nM in data set [3], 0.002 nM in data set [5], 5.19 nM in [6] and 0.471 nM in data set [11].

Turning to `COC(=O)NC(C(=O)N1CCC[C@H]1c1ncc(-c2ccc3cc(-c4ccc5nc([C@@H]6CCCN6C(=O)C(NC(=O)OC)c6ccccc6)[nH]c5c4)ccc3c2)[nH]1)c1ccccc1` (mixture of isomers) [Compound 14], the CC50 in [2] and in data set [10] was over 984 nM each time. The EC50 in data set [3] amounted to 0.004 nM; in data set [5], 0.004 nM; in data set [6] it was 0.093 nM; in data set [11], 0.836 nM.

In the case of `COC(=O)N[C@H](C(=O)N1CCC[C@H]1c1ncc(-c2ccc3cc(-c4ccc5nc([C@@H]6CCCN6C(=O)[C@@H](NC(=O)OC)C6CC6)[nH]c5c4)ccc3c2)[nH]1)C1CC1` [Compound 5], the CC50 in data set [2] and in data set [10] was over 984 nM throughout. Moreover, the EC50 in [3] amounted to 0.039 nM; in [5], 0.058 nM; in data set [6], 10.8 nM.

With `COC(=O)N[C@H](C(=O)N1CCC[C@H]1c1ncc(-c2ccc(-c3ccc4nc([C@@H]5CCCN5C(=O)[C@@H](NC(=O)OC)[C@@H](C)OC)[nH]c4c3)cc2)[nH]1)[C@@H](C)OC` [Compound 2], the EC50 in [1] is 2.69 nM; in [3], 0.54 nM; in data set [4], 0.655 nM; in [5], 0.909 nM; in [6], 2.88 nM; in [7], 9.05 nM. The EC50 in data set [8] turned out to be 1.81 nM; in data set [9] it was 1.38 nM. Further, the half-maximal cytotoxic concentration (CC50) in data set [2] and in data set [10] was over 984 nM throughout.

On to `COC(=O)N[C@H](C(=O)N1CCC[C@H]1c1ncc(-c2ccc3cc(-c4ccc5nc([C@@H]6CCCN6C(=O)[C@@H](NC(=O)OC)[C@@H](C)O)[nH]c5c4)ccc3c2)[nH]1)[C@@H](C)O` [Compound 6], for which the CC50 in data set [2] and in data set [10] was over 984 nM each time. The 50% effective concentration (EC50) in data set [3] was determined as 0.132 nM; in [5], 0.142 nM; in [6], 1.01 nM; in data set [11] it was 0.181 nM.

On to `COCC[C@H](NC(=O)OC)C(=O)N1CCC[C@H]1c1ncc(-c2ccc3cc(-c4ccc5nc([C@@H]6CCCN6C(=O)[C@H](CCOC)NC(=O)OC)[nH]c5c4)ccc3c2)[nH]1` [Compound 10], for which the CC50 in data set [2] and in data set [10] was over 984 nM throughout. Moreover, the EC50 in data set [3] came out at 0.029 nM; in data set [5], 0.057 nM; in [6], 1.03 nM.

With `CC[C@H](C)[C@H](NC(=O)OC)C(=O)N1CCC[C@H]1c1nc2cc(-c3ccc4cc(-c5cnc([C@H]6CCCN6C(=O)[C@@H](NC(=O)OC)[C@@H](C)OC)[nH]5)ccc4c3)ccc2[nH]1` [Compound 20], the CC50 amounted to 9410 nM in [2] and 8160 nM in data set [10]. The EC50 was 2.3 nM in data set [3], 4.1 nM in data set [5], 336 nM in data set [6] and 324 nM in [11].

`COC(=O)NC(C(=O)N1CCC[C@H]1c1ncc(-c2ccc3cc(-c4ccc5nc([C@@H]6CCCN6C(=O)C(NC(=O)OC)C6CCOCC6)[nH]c5c4)ccc3c2)[nH]1)C1CCOCC1` (mixture of isomers) [Compound 12]: the CC50 in data set [2] and in [10] was over 984 nM throughout. Further, the EC50 amounted to 0.08 nM in [3], 0.11 nM in [5], 0.275 nM in [6] and 0.268 nM in data set [11].

In the case of `COC(=O)N[C@@H](CC(C)C)C(=O)N1CCC[C@H]1c1ncc(-c2ccc3cc(-c4ccc5nc([C@@H]6CCCN6C(=O)[C@H](CC(C)C)NC(=O)OC)[nH]c5c4)ccc3c2)[nH]1` [Compound 7], the CC50 in data set [2] and in [10] was over 984 nM throughout. The concentration for a half-maximal effect (EC50) stood at 0.005 nM in data set [3], 0.003 nM in [5], 3.41 nM in data set [6] and 0.989 nM in data set [11].

`CC[C@H](C)[C@H](NC(=O)OC)C(=O)N1CCC[C@@H]1c1ncc(-c2ccc3cc(-c4ccc5[nH]c([C@@H]6CCCN6C(=O)[C@@H](NC(=O)OC)[C@@H](C)OC)nc5c4)ccc3c2)[nH]1` [Compound 21]: the CC50 was 9140 nM in data set [2] and 8160 nM in data set [10]. Further, the half-maximal effective concentration (EC50) was determined as 2.2 nM in [3], 2.9 nM in [5], 275 nM in [6] and 482 nM in data set [11].

Values taken from patent US9427428B2, “Benzimidazole-imidazole derivatives” (Janssen Sciences Ireland UC, priority 2009, dated 2016).
